This assay deals with MCF7. The assay is described as follows: Compound was tested for antiproliferative activity against human breast cancer cell line MCF-7 in MTT assay. Type of assay: functional, cell-based.
As to `Cc1c(C)c2c(c(C)c1OC(=O)[C@@H](N)CCCCN)CCC(C)(COC(=O)CCC(C)[C@H]1CC[C@H]3[C@@H]4[C@H](O)C[C@@H]5C[C@H](O)CC[C@]5(C)[C@H]4C[C@H](O)[C@]13C)O2` (some centres undefined), inhibition was half-maximal at 4 µM (IC50).

Turning to `Cc1c(C)c2c(c(C)c1O)CCC(C)(C(=O)O)O2` (centres undefined) [TROLOX], the IC50 came to 1460 µM.

`CCCCC(=O)OCC1(C)CCc2c(C)c(OC(=O)[C@@H](N)CCCCN)c(C)c(C)c2O1` (some centres undefined) returned a half-inhibitory concentration (IC50) of 15 µM. This IC50 lies about 97-fold lower than the previous one.

For the compound `Cc1c(C)c2c(c(C)c1OC(=O)[C@@H](N)CCCCN)CCC(C)(CO)O2` (some centres undefined), 194 µM corresponded to half-maximal inhibition (IC50). Against the preceding compound, the IC50 is about 13-fold higher.

For `Cc1c(C)c2c(c(C)c1O)CC[C@@](C)(CCC[C@H](C)CCC[C@H](C)CCCC(C)C)O2` [ALPHA-TOCOPHEROL], the concentration for half-maximal inhibition (IC50) stood at 329 µM.

The compound `Cc1c(C)c2c(c(C)c1OC(=O)CCC(=O)O)CC[C@@](C)(CCC[C@H](C)CCC[C@H](C)CCCC(C)C)O2` [(+)-ALPHA-TOCOPHERYL SUCCINATE] had a half-maximal inhibitory concentration (IC50) of over 368 µM.

`CCCCCOCC1(C)CCc2c(C)c(OC(=O)[C@@H](N)CCCCN)c(C)c(C)c2O1` (some centres undefined): the half-maximal inhibitory concentration (IC50) is 22 µM.

As for `CC(=O)Oc1c(C)c(C)c2c(c1C)CC[C@@](C)(CCC[C@H](C)CCC[C@H](C)CCCC(C)C)O2`, the concentration for half-maximal inhibition (IC50) was over 500 µM.

For the compound `Cc1c(C)c2c(c(C)c1OC(=O)[C@@H](N)CCCCN)CC[C@@](C)(CCC[C@H](C)CCC[C@H](C)CCCC(C)C)O2`, the IC50 is 12 µM. That is a double-digit micromolar value.

The record behind these values is ChEMBL document CHEMBL1130954, “Design and synthesis of analogs of vitamin E: antiproliferative activity against human breast adenocarcinoma cells” (Bioorg Med Chem Lett, 1998).
